Experimental data taken from the supplement of paper PMC8967900.

Key:
Assay in all cases: selective drug sensitivity score (sDSS, relative to normal bone marrow) (sDSS (score)); higher = more potent and effective on the cell line relative to normal bone marrow cells
Settings in all cases: 72 h
MOLT-16 = tested on: MOLT-16
COG-LL-355h = tested on: COG-LL-355h
PEER = tested on: PEER
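Also: ALL cell lines in 384-well plates, five doses spanning 10,000-fold, each plate scaled between vehicle and 100 µmol/L benzalkonium chloride controls, sDSS an adapted area-under-curve metric.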

Compound: COc1cc2c(NC3CCN(C(C)C)CC3)nc(N3CCC(F)(F)CC3)nc2cc1OCCCN1CCCC1 [UNC0642] (top concentration 10000 nM)
- selective drug sensitivity score (MOLT-16): -2.94
- selective drug sensitivity score (COG-LL-355h): 4.36
- selective drug sensitivity score (PEER): -0.74

Compound: CO[C@@H](C(=O)N1Cc2[nH]nc(NC(=O)c3ccc(N4CCN(C)CC4)cc3)c2C1)c1ccccc1 [Danusertib] (top concentration 10000 nM)
- selective drug sensitivity score (MOLT-16): 22.4
- selective drug sensitivity score (COG-LL-355h): 3.04
- selective drug sensitivity score (PEER): 21.6

Compound: CC/C(=C(\c1ccc(O)cc1)c1ccc(OCCN(C)C)cc1)c1ccccc1 [4-hydroxytamoxifen] (top concentration 10000 nM)
- selective drug sensitivity score (MOLT-16): 3.02
- selective drug sensitivity score (COG-LL-355h): 1.72
- selective drug sensitivity score (PEER): 2.32

Compound: O=C(Nc1ccc(OC(F)(F)Cl)cc1)c1cnc(N2CC[C@@H](O)C2)c(-c2cc[nH]n2)c1 [Asciminib] (top concentration 1000 nM)
- selective drug sensitivity score (MOLT-16): 8.42
- selective drug sensitivity score (COG-LL-355h): 2.02
- selective drug sensitivity score (PEER): 16.2

Compound: CC[C@H](NC(=O)[C@H](C)NC)C(=O)N1C[C@@H](O)C[C@H]1Cc1c(-c2[nH]c3cc(F)ccc3c2C[C@@H]2C[C@H](O)CN2C(=O)[C@H](CC)NC(=O)[C@H](C)NC)[nH]c2cc(F)ccc12 [Birinapant] (top concentration 1000 nM)
- selective drug sensitivity score (MOLT-16): -1.7
- selective drug sensitivity score (COG-LL-355h): 13.3
- selective drug sensitivity score (PEER): -4.4

Compound: COc1cc2nccc(Oc3ccc(NC(=O)Nc4cc(C)on4)c(Cl)c3)c2cc1OC [Tivozanib] (top concentration 10000 nM)
- selective drug sensitivity score (MOLT-16): 3.66
- selective drug sensitivity score (COG-LL-355h): -1.04
- selective drug sensitivity score (PEER): 12.2

Compound: N#Cc1ccc(C(c2ccc(C#N)cc2)n2cncn2)cc1 [Letrozole] (top concentration 10000 nM)
- selective drug sensitivity score (MOLT-16): -0.04
- selective drug sensitivity score (COG-LL-355h): -0.04
- selective drug sensitivity score (PEER): -0.04

Compound: CN1CCN(c2ccc3nc(-c4c(N)c5c(F)cccc5[nH]c4=O)[nH]c3c2)CC1 [Dovitinib] (top concentration 10000 nM)
- selective drug sensitivity score (MOLT-16): -0.14
- selective drug sensitivity score (COG-LL-355h): 3.66
- selective drug sensitivity score (PEER): 0.66

Compound: CC[C@]1(O)C[C@H]2CN(CCc3c([nH]c4ccccc34)[C@@](C(=O)OC)(c3cc4c(cc3OC)N(C)[C@H]3[C@@](O)(C(=O)OC)[C@H](OC(C)=O)[C@]5(CC)C=CCN6CC[C@]43[C@@H]65)C2)C1 [Vinblastine] (top concentration 1000 nM)
- selective drug sensitivity score (MOLT-16): 0.7
- selective drug sensitivity score (COG-LL-355h): -0.6
- selective drug sensitivity score (PEER): -0.9

Compound: CNS(=O)(=O)Nc1nccc(Cc2c(C)c3ccc(Oc4ncccn4)cc3oc2=O)c1F (top concentration 1000 nM)
- selective drug sensitivity score (MOLT-16): 1.42
- selective drug sensitivity score (COG-LL-355h): 0.02
- selective drug sensitivity score (PEER): 0.22

Compound: COc1cc(OC)cc(N(CCNC(C)C)c2ccc3ncc(-c4cnn(C)c4)nc3c2)c1 [Erdafitinib] (top concentration 1000 nM)
- selective drug sensitivity score (MOLT-16): -0.56
- selective drug sensitivity score (COG-LL-355h): -0.56
- selective drug sensitivity score (PEER): -0.36

Compound: CNC(=O)c1ccc(N2C(=S)N(c3ccc(C#N)c(C(F)(F)F)c3)C(=O)C2(C)C)cc1F [Enzalutamide] (top concentration 10000 nM)
- selective drug sensitivity score (MOLT-16): 1.48
- selective drug sensitivity score (COG-LL-355h): -0.82
- selective drug sensitivity score (PEER): 0.48

Compound: CN1CCN(c2ccc(C(=O)Nc3n[nH]c4ccc(Cc5cc(F)cc(F)c5)cc34)c(NC3CCOCC3)c2)CC1 [Entrectinib] (top concentration 1000 nM)
- selective drug sensitivity score (MOLT-16): -1.2
- selective drug sensitivity score (COG-LL-355h): 1.5
- selective drug sensitivity score (PEER): 0.9

Compound: FC(F)(F)c1ccc(/C=C/c2nc(COc3ccc(CCCCn4ccnn4)cc3)co2)cc1 [Mubritinib] (top concentration 1000 nM)
- selective drug sensitivity score (MOLT-16): 18.6
- selective drug sensitivity score (COG-LL-355h): 2.76
- selective drug sensitivity score (PEER): 21.7

Compound: O=c1sn(-c2cccc3ccccc23)c(=O)n1Cc1ccccc1 [Tideglusib] (top concentration 3000 nM)
- selective drug sensitivity score (MOLT-16): -0.3
- selective drug sensitivity score (COG-LL-355h): -0.3
- selective drug sensitivity score (PEER): -0.3

Compound: N#Cc1ccc2[nH]c(O)c(-c3ccc(CN4CCOCC4)cn3)c2c1 [AZD-1080] (top concentration 10000 nM)
- selective drug sensitivity score (MOLT-16): 0.38
- selective drug sensitivity score (COG-LL-355h): 3.98
- selective drug sensitivity score (PEER): -0.02

Compound: CCOc1ccccc1-n1c(C(C)N2CCN(C(=O)COc3ccc(Cl)cc3)CC2)nc2ccccc2c1=O (stereo unspecified) [Erastin] (top concentration 10000 nM)
- selective drug sensitivity score (MOLT-16): 23
- selective drug sensitivity score (COG-LL-355h): 14.4
- selective drug sensitivity score (PEER): 7.94

Compound: CN(C)C(=N)NC(=N)N [Metformin] (top concentration 100000 nM)
- selective drug sensitivity score (MOLT-16): -0.02
- selective drug sensitivity score (COG-LL-355h): -0.02
- selective drug sensitivity score (PEER): -0.02

Compound: Clc1ccc(Nc2nnc(Cc3ccncc3)c3ccccc23)cc1 [Vatalanib] (top concentration 10000 nM)
- selective drug sensitivity score (MOLT-16): 0
- selective drug sensitivity score (COG-LL-355h): 0
- selective drug sensitivity score (PEER): 0.7

Compound: COc1cc2nccc(Oc3ccc(NC(=O)NC4CC4)c(Cl)c3)c2cc1C(N)=O [Lenvatinib] (top concentration 2500 nM)
- selective drug sensitivity score (MOLT-16): -0.04
- selective drug sensitivity score (COG-LL-355h): -0.24
- selective drug sensitivity score (PEER): 2.26

Compound: CC(=O)[C@]1(O)Cc2c(O)c3c(c(O)c2[C@@H](O[C@H]2C[C@H](N)[C@H](O)[C@H](C)O2)C1)C(=O)c1ccccc1C3=O [Idarubicin] (top concentration 1000 nM)
- selective drug sensitivity score (MOLT-16): 15.9
- selective drug sensitivity score (COG-LL-355h): 3.14
- selective drug sensitivity score (PEER): -4.86

Compound: CN(C)C(=O)c1cc2cnc(Nc3ccc(N4CCNCC4)cn3)nc2n1C1CCCC1 [Ribociclib] (top concentration 10000 nM)
- selective drug sensitivity score (MOLT-16): 4.88
- selective drug sensitivity score (COG-LL-355h): 0.18
- selective drug sensitivity score (PEER): 3.18

Compound: CC[C@@](C)(Nc1ccnc(-c2c[nH]c3ncccc23)n1)C(=O)NCC(F)(F)F [Decernotinib] (top concentration 10000 nM)
- selective drug sensitivity score (MOLT-16): -3.94
- selective drug sensitivity score (COG-LL-355h): -3.94
- selective drug sensitivity score (PEER): -3.84

Compound: O=C(c1ccc(OCCN2CCCCC2)cc1)c1c(-c2ccc(O)cc2)sc2cc(O)ccc12 [Raloxifene] (top concentration 10000 nM)
- selective drug sensitivity score (MOLT-16): 1.02
- selective drug sensitivity score (COG-LL-355h): 3.92
- selective drug sensitivity score (PEER): 0.82

Compound: O=c1[nH]c(=O)n([C@H]2C[C@H](O)[C@@H](CO)O2)cc1F [Floxuridine] (top concentration 10000 nM)
- selective drug sensitivity score (MOLT-16): 32.8
- selective drug sensitivity score (COG-LL-355h): 6.52
- selective drug sensitivity score (PEER): 14.2

Compound: CCCCCOC(=O)Nc1nc(=O)n([C@@H]2O[C@H](C)[C@@H](O)[C@H]2O)cc1F [Capecitabine] (top concentration 10000 nM)
- selective drug sensitivity score (MOLT-16): -0.06
- selective drug sensitivity score (COG-LL-355h): -0.06
- selective drug sensitivity score (PEER): -0.06

Compound: COc1cc2c(cc1OC(C)C)[C@H](c1ccc(Cl)cc1)N(c1ccc(N(C)C[C@H]3CC[C@H](N4CCN(C)C(=O)C4)CC3)cc1)C(=O)C2 [NVP-CGM097] (top concentration 25000 nM)
- selective drug sensitivity score (MOLT-16): 10.4
- selective drug sensitivity score (COG-LL-355h): 2.86
- selective drug sensitivity score (PEER): -2.14

Compound: COc1ncc(-c2ccc3nccc(-c4ccnnc4)c3c2)cc1NS(=O)(=O)c1ccc(F)cc1F [Omipalisib] (top concentration 1000 nM)
- selective drug sensitivity score (MOLT-16): 10
- selective drug sensitivity score (COG-LL-355h): 19.5
- selective drug sensitivity score (PEER): -3

Compound: CNC(=O)c1cc(COc2nnc(Nc3ccc(Cl)cc3)c3ccoc23)ccn1 [Telatinib] (top concentration 10000 nM)
- selective drug sensitivity score (MOLT-16): 0
- selective drug sensitivity score (COG-LL-355h): 0
- selective drug sensitivity score (PEER): 0

Compound: CCCC(CCC)C(=O)O [Valproic_acid] (top concentration 1000000 nM)
- selective drug sensitivity score (MOLT-16): 0
- selective drug sensitivity score (COG-LL-355h): 0
- selective drug sensitivity score (PEER): 0

Compound: O=C(NC[C@H](O)CN1CCc2ccccc2C1)c1cc(NC2COC2)ncn1 (top concentration 10000 nM)
- selective drug sensitivity score (MOLT-16): 1.54
- selective drug sensitivity score (COG-LL-355h): -0.06
- selective drug sensitivity score (PEER): -0.06

Compound: COC(=O)c1ccc2c(c1)[nH]c1ncnc(NCCCN3CCCCC3)c12 [UM729] (top concentration 10000 nM)
- selective drug sensitivity score (MOLT-16): 0.94
- selective drug sensitivity score (COG-LL-355h): 1.44
- selective drug sensitivity score (PEER): 1.84

Compound: OC[C@H]1O[C@@H](n2cnc3c2N=CNC[C@H]3O)C[C@@H]1O [Pentostatin] (top concentration 10000 nM)
- selective drug sensitivity score (MOLT-16): -0.34
- selective drug sensitivity score (COG-LL-355h): 1.26
- selective drug sensitivity score (PEER): -0.44

Compound: CCOc1cc2ncc(C#N)c(Nc3ccc(OCc4ccccn4)c(Cl)c3)c2cc1NC(=O)/C=C/CN(C)C [Neratinib] (top concentration 1000 nM)
- selective drug sensitivity score (MOLT-16): 1.98
- selective drug sensitivity score (COG-LL-355h): 5.68
- selective drug sensitivity score (PEER): 2.88

Compound: Nc1nc(Cl)nc2c1ncn2[C@H]1C[C@H](O)[C@@H](CO)O1 [Cladribine] (top concentration 1000 nM)
- selective drug sensitivity score (MOLT-16): 1.06
- selective drug sensitivity score (COG-LL-355h): 0.16
- selective drug sensitivity score (PEER): -12.2

Compound: Cc1cnc(-c2ccccc2C(C)C)nc1NCc1ccc(-n2ccnn2)cc1 [ML323] (top concentration 10000 nM)
- selective drug sensitivity score (MOLT-16): 3.04
- selective drug sensitivity score (COG-LL-355h): 2.04
- selective drug sensitivity score (PEER): 4.24

Compound: O=C(O)c1ccc(O)c2ncccc12 [IOX-1] (top concentration 100000 nM)
- selective drug sensitivity score (MOLT-16): 3.74
- selective drug sensitivity score (COG-LL-355h): 3.24
- selective drug sensitivity score (PEER): 4.34

Compound: CC(C)N(C[C@H]1O[C@@H](n2cnc3c(N)ncnc32)[C@H](O)[C@@H]1O)[C@H]1C[C@@H](CCc2nc3cc(C(C)(C)C)ccc3[nH]2)C1 [Pinometostat] (top concentration 1000 nM)
- selective drug sensitivity score (MOLT-16): 0
- selective drug sensitivity score (COG-LL-355h): 0
- selective drug sensitivity score (PEER): 0

Compound: CCCS(=O)(=O)Nc1ccc(F)c(C(=O)c2c[nH]c3ncc(-c4ccc(Cl)cc4)cc23)c1F [Vemurafenib] (top concentration 10000 nM)
- selective drug sensitivity score (MOLT-16): 3.76
- selective drug sensitivity score (COG-LL-355h): 0.86
- selective drug sensitivity score (PEER): 2.56

Compound: O=C1Cc2cc(C(=O)NC3C[C@H]4CC[C@@H](C3)N4S(=O)(=O)CC3CCN(CCCC(F)(F)F)CC3)c(Cl)cc2N1 (stereo partly specified) (top concentration 10000 nM)
- selective drug sensitivity score (MOLT-16): 0
- selective drug sensitivity score (COG-LL-355h): 0.9
- selective drug sensitivity score (PEER): 0

Compound: CC[C@@H]1C(=O)N(C)c2cnc(Nc3ccc(C(=O)NC4CCN(C)CC4)cc3OC)nc2N1C1CCCC1 [BI-2536] (top concentration 1000 nM)
- selective drug sensitivity score (MOLT-16): 9.04
- selective drug sensitivity score (COG-LL-355h): 4.84
- selective drug sensitivity score (PEER): 20.8

Compound: O=C(c1ccc(C(=O)N2CCC(N3CCCC3)CC2)c(Nc2ccccc2)c1)N1CCC(N2CCCC2)CC1 [UNC1215] (top concentration 10000 nM)
- selective drug sensitivity score (MOLT-16): 0
- selective drug sensitivity score (COG-LL-355h): 0
- selective drug sensitivity score (PEER): 0
